Results: US4025629A, “P-(trifluoromethylquinolylamino)benzamides, pharmaceutical dosage forms and method of treatment” (The Upjohn Company, priority 1975, dated 1977)
“And” between values parts separate entries of the source, which are not always exact repeats. Equal values may be shown once.

Legend:
Plasmodium berghei = conditions: mice; 160 mg./kg. subcutaneously; cited from earlier work
[1] = system: Schistosoma Mansoni cercariae; conditions: 160 mg./kg. subcutaneously; cited from earlier work
[2] = system: unanesthetized normotensive rats; test: Hypotensive effect (mean arterial pressure) in unanesthetized normotensive rats, oral aqueous suspension; format: in vivo, rat; conditions: for B.P. Change: individual rats
Description: An aqueous suspension for oral administration is prepared by suspending the essential active ingredient at a concentration of 10 mg./ml. in an aqueous solution containing 1% of sodium carboxymethylcellulose. This suspension is used for bringing about hypotensive effects in unanesthetized normotensive rats. The rats are prepared for measuring blood pressure directly from the aorta through a chronic indwelling cannula (Weeks and Jones, Proc. Soc. Exptl. Biol. and Med., 104, 646, 1960). Mean arterial pressure is measured prior to and at four hours and 24 hours after drug administration at a specified dose.

[3] = system: male mice (motor activity); test: Inhibition of motor activity of mice on drug-containing diet (actophotometers); format: in vivo, mouse; conditions: after 20 hours on diet
Description: The essential active ingredient is suspended in a normal mouse diet to provide a concentration in the diet of from about 0.03 to about 0.3%. Groups of male mice, 18-22 gm. each, are fed a stock diet containing various concentrations of the essential active ingredient. Motor activity is determined after 20 hours on the diet, four groups of two mice from each test group being placed in actophotometers. After a ten minute acclimation period, motor activity is recorded for a ten minute period with the following results: […]

## CN1CCN(C(=O)c2ccc(Nc3ccnc4cc(Cl)ccc34)cc2)CC1 [1-[p-[(7-chloro-4-quinolyl)amino]-N,N-(3-methyl-3-azapentamethylene]benzamide]
Plasmodium berghei
  activity against Plasmodium berghei: Slight activity
[1]
  activity against Schistosoma Mansoni cercariae in mice: Slight activity

## CN1CCN(C(=O)c2ccc(Nc3ccnc4cc(C(F)(F)F)ccc34)cc2)CC1 [essential active ingredient, p-[(7-trifluoromethyl-4-quinolyl)amino]-N,N-(3-methyl-3-azapentamethylene)benzamide]
[2]; oral 1 mg./kg., 4 hr.
  B.P. Change: 0 mm Hg
[2]; oral 1 mg./kg., 24 hr.
  B.P. Change: -10 mm Hg and 0 mm Hg
[2]; oral 3.12 mg./kg., 4 hr.
  B.P. Change: -18 mm Hg and +12 mm Hg and 0 mm Hg
[2]; oral 3.12 mg./kg., 24 hr.
  B.P. Change: -18 mm Hg and -10 mm Hg
[2]; oral 6.35 mg./kg., 4 hr., average of 4 rats (initial avg 138)
  B.P. Change, avg: -13 mm Hg
[2]; oral 6.35 mg./kg., 4 hr.
  B.P. Change: -14 mm Hg and -16 mm Hg
[2]; oral 6.35 mg./kg., 24 hr., average of 4 rats (initial avg 138)
  B.P. Change, avg: -12 mm Hg
[2]; oral 6.35 mg./kg., 24 hr.
  B.P. Change: -10 mm Hg and -14 mm Hg
[2]; oral 12.5 mg./kg., 24 hr., average of 4 rats (initial avg 132)
  B.P. Change, avg: -17 mm Hg
[2]; oral 12.5 mg./kg., 24 hr.
  B.P. Change: -24 mm Hg and -12 mm Hg
[2]; oral 25 mg./kg., 4 hr., average of 4 rats (initial avg 138)
  B.P. Change, avg: -18 mm Hg
[2]; oral 25 mg./kg., 4 hr.
  B.P. Change: -22 mm Hg and -30 mm Hg and -12 mm Hg
[2]; oral 25 mg./kg., 24 hr., average of 4 rats (initial avg 138)
  B.P. Change, avg: -23 mm Hg
[2]; oral 25 mg./kg., 24 hr.
  B.P. Change: -22 mm Hg and -28 mm Hg and -20 mm Hg
[2]; oral 50 mg./kg., 4 hr., average of 4 rats (initial avg 133)
  B.P. Change, avg: -13 mm Hg
[2]; oral 50 mg./kg., 4 hr.
  B.P. Change: -16 mm Hg and -22 mm Hg
[2]; oral 50 mg./kg., 24 hr., average of 4 rats (initial avg 133)
  B.P. Change, avg: -17 mm Hg
[2]; oral 50 mg./kg., 24 hr.
  B.P. Change: -22 mm Hg and -28 mm Hg and 0 mm Hg
[3]; 0.1% conc. in diet, 24 hour drug intake 95 mg./kg.
  % Inhibition Motor Activity: 96%
[3]; 0.3% conc. in diet (third line), 24 hour drug intake 47 mg./kg.
  % Inhibition Motor Activity: 68%
[3]; 0.3% conc. in diet, 24 hour drug intake 94 mg./kg.
  % Inhibition Motor Activity: 92%

## CN1CCN(C(=O)c2cccc(Nc3ccnc4cc(Cl)ccc34)c2)CC1 [its meta isomer]
Plasmodium berghei
  activity against Plasmodium berghei: Slight activity
[1]
  activity against Schistosoma Mansoni cercariae in mice: Slight activity
